Series [1] has as its system pruritus (itch) associated with atopic dermatitis. As to the kind of experiment: Phase 2b study in atopic dermatitis (Examples 8, 9): ≥4-point improvement in peak pruritus NRS (PPNRS). It counts as in vivo, human. As for the experimental part: The severity of itch (pruritus) due to AD will be assessed using a horizontal 11-point NRS. Patients will be asked to assess their “worst itching due to AD over the past 24 hours” on an NRS anchored by the terms “no itching” (0) and “worst possible itching” (10). The item will be completed at each visit via an application on an electronic device in the clinic or the patient's own electronic device from baseline through Week 20.
The binary secondary efficacy endpoint, 4-point improvement in the peak pruritis numerical rating scale (“responders”), was analysed using the Mantel-Haenszel (MH) test and Fisher's exact tests, comparing the proportions of PPNRS responders in each active treatment group with placebo (intent-to-treat (ITT) population).
The ITT population included all randomized subjects who received at least 1 dose of orismilast. The treatment group assignment was designated according to initial randomization. The ITT population served as the basis for the analysis of efficacy.
PPNRS assesses the severity of itch (pruritus) due to atopic dermatitis using a horizontal 11-point NRS. […]
In FIG. 34, “Observed” or “Obs” refers to all subjects in the ITT Population with a recorded PPNRS score, i.e. if the PPNRS score is missing the value was not imputed. […]

The next series relates to healthy volunteers. As to the kind of experiment: Clinical trial LP0058-1442 (phase 1, NCT03812198): safety and tolerability in healthy volunteers. It is filed as in vivo. As to the method: The safety, tolerability, and PK of orismilast MR and IR formulations were tested in a phase 1 clinical trial (NCT03812198) on healthy volunteers. Participants were randomised (3:1) to received orismilast MR or placebo (n=12). Orismilast MR was administered twice-daily for a total of 17 days. Orismilast MR was initiated at 10 mg twice-daily on days 1-2, increased to 20 mg twice-daily on days 3-4, to 30 mg twice-daily on days 5-6, to 40 mg twice-daily on days 7-8, to 50 mg twice-daily on days 9-10, and finally to 60 mg twice-daily on days 11-17.
Twenty-seven (27) healthy volunteers received a single administration of 30 mg orismilast, and 9 subjects received multiple administrations over a period of 17 days with an up-titration up to a maximum of 60 mg BID. Part 1 of this study was to evaluate the key PK parameters of the new modified-release formulation compared to the reference capsule formulation with immediate release.
In that study, patients received orismilast 30 mg BID immediate release or placebo for 16 weeks.

Another series concerns the target CYP2D6 (Homo sapiens, UniProt P10635). Kind of series: CYP2D6 inhibition in vitro. It is filed as in vitro ADME. The source says: Concomitant use of orismilast • with other drugs mainly metabolized by the cytochrome CYP2D6 has not been studied clinically.

Chain of CYP2D6 (P10635 whole entry): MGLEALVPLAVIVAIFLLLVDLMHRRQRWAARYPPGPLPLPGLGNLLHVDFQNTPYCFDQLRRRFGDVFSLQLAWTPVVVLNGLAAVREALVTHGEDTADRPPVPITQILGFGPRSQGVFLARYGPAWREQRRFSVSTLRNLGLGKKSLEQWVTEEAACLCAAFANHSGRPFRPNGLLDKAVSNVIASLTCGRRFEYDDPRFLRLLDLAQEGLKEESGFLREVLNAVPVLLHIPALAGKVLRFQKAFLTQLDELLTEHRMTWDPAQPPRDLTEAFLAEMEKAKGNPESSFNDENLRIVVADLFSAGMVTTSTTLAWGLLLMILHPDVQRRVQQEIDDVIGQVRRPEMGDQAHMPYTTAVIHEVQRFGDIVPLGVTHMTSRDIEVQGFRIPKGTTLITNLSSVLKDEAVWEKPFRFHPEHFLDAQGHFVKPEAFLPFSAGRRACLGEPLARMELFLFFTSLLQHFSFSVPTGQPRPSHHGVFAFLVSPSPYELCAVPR

Turning to `O=C(Cc1c(Cl)c[n+]([O-])cc1Cl)c1ccc(OC(F)F)c2c1OC1(CCS(=O)(=O)CC1)O2` [orismilast, 2-(3,5-dichloro-1-oxidopyridin-1-ium-4-yl)-1-[7-(difluoromethoxy)-1′,1′-dioxospiro[1,3-benzodioxole-2,4′-thiane]-4-yl]ethanone], in series [1] (all active arms (20, 30, 40 mg BID), MI p<0.05), the “≥4-point reduction in itch NRS / PPNRS at week 2 compared to placebo” value is given as “significant”. For the same molecule, in series [1] (all active arms, subjects having severe itch (PPNRS>7) at baseline, Observed p<0.05 or p<0.1), the “≥4 point reduction in PPNRS at week 16 compared to placebo” value was “statistically significant improvement”. For the same molecule, in the series with healthy volunteers (40-mg dose level), the “number of adverse events of headache at the 40-mg dose level” value is reported as 6. Besides, the “number of participants with nausea at a dose equal or lower to 40 mg” value in the series with healthy volunteers (dose equal or lower to 40 mg) stood at 2. Moreover, the maximal tolerated dose in the series with healthy volunteers (modified-release tablet, healthy volunteers) is given as 40 mg BID. For the same molecule, the “number of adverse events of headache” value with healthy volunteers (subjects receiving orismilast, up-titration up to 60 mg BID) was 14. Moreover, the “number of subjects with nausea” value with healthy volunteers (up-titration up to 60 mg BID, 9 subjects) turned out to be 5. Further, on CYP2D6, the “inhibition of CYP2D6” value was “competitive direct inhibitor”.
